Data from paper PMC5902452, “In silico optimization of a guava antimicrobial peptide enables combinatorial exploration for peptide design” (Nature Communications, 2018).
Peptide text beside a SMILES is read from it.

Legend:
[1] = system: Acinetobacter baumannii ATCC 19606; test: Antimicrobial activity, MIC by twofold serial dilution; assay type: cell-based; conditions: purified peptide; MH broth, 18 h, 37 °C, A630; average of three independent experiments in triplicate
Description: (§2) Lysogeny Broth (LB) was used for cultures of Acinetobacter baumannii ATCC 19606, Enterococcus faecalis ATCC 29212, Escherichia coli ATCC 25922, Klebsiella pneumoniae ATCC 13883, Pseudomonas aeruginosa ATCC 27853, and S. aureus ATCC 25923. Brain Heart Infusion (BHI) broth was used for cultures of Listeria ivanovii Li 4pVS2 and Streptococcus pyogenes ATCC 19615. Yeast peptone dextrose (YPD) medium was used for Candida species (C. albicans ATCC 90028 and C. parapsilosis ATCC 22019). MH (Mueller Hinton) broth was used for suspend centrifuged culture of bacteria and yeasts in logarithmic phase to an A630 of 0.01 (~10^6 cfu mL^−1), except for S. pyogenes, L. ivanovii, and E. faecalis that were suspended in their respective growth medium. […] A microplate reader (UVM 340, Asys Hitech) was used to monitor the antimicrobial susceptibility by measuring the change in A630. […] Each experiment was performed in triplicate with positive (0.7% formaldehyde) and negative (without peptide) inhibition controls.

[2] = system: Escherichia coli ATCC 25922; test: as above; assay type: cell-based; conditions: purified peptide; MH broth, 18 h, 37 °C, A630; average of three independent experiments in triplicate
Description: as §2

[3] = system: E. coli 0157; test: Antibiofilm assay; assay type: cell-based, Escherichia coli
Experimental: (§1) Overnight cultures of microorganisms [E. coli 0157, methicillin-resistant S. aureus (MRSA), K. pneumoniae 1825971, or C. albicans clinical isolate obtained from a blood culture maintained at LACEN (Laboratório Central de Saúde do Distrito Federal, a Brazilian reference laboratory for clinical isolates in Brasília, Brazil)] grown in LB broth (BD Difco) were diluted 1 in 100 in LB and Todd-Hewitt broth (BD Difco) or BM2 minimal medium [62 mM potassium phosphate buffer, pH 7.0, 7 mM (NH4)2SO4, 2 mM MgSO4, 10 μM FeSO4, 0.5% glucose], and 100 μL per well was added into 96-well round-bottom microplates. Absorbance at 600 nm was used to assess the planktonic cell growth. Non-adherent planktonic cells were removed from microtiter wells and washed twice with deionized water. Adherent cells were stained with 0.1% crystal violet for 20 min. The microplate wells were washed twice with deionized water, air dried, and solubilized with 110 μL of 70% ethanol. […] Biofilm formation was assessed by measuring the absorbance at 600 nm using a microplate reader (Bio-Tek Instruments, Inc., USA). The microdilution method for cationic peptides was used to determine the MIC for planktonic cells. Three biological replicates were performed for each experiment involving eight technical replicates.

[4] = system: Listeria ivanovii Li4pVS2; conditions: purified peptide; BHI broth, 18 h, 37 °C, A630; average of three independent experiments in triplicate
Description: as §2

[5] = system: methicillin-resistant S. aureus (MRSA); test: Antibiofilm assay; assay type: cell-based, Staphylococcus aureus
Experimental: as §1

[6] = system: P. aeruginosa ATCC 27853; test: SEM-FEG imaging; assay type: cell-based, Pseudomonas aeruginosa; conditions: 25 µM (MIC) and 50 µM, 1 h, 37 °C
Experimental: Bacteria in mid-logarithmic phase were collected by centrifugation ([…], 10 min, 4 °C), washed twice with PBS, and suspended in the same buffer at a density of 2 × 10^7 cfu mL^−1. […] As a negative control, cells were incubated in buffer without peptide. Microbial cells were then fixed with 2.5% glutaraldehyde, homogenized by gently inverting the tubes, and stored at 4 °C prior to SEM-FEG analysis. A Hitachi SU-70 Field Emission Gun Scanning Electron Microscope was used to record SEM-FEG images. The samples (gold plates where 20 µL of inoculum were deposited and dried under nitrogen) were fixed on an alumina SEM support with a carbon adhesive tape and were observed without metallization. In Lens Secondary electron detector (SE-Lower) was used to characterize our samples. The accelerating voltage was 1 kV and the working distance was around 15 mm. At least five to ten different locations were analyzed on each surface, leading to the observation of a minimum of 100 single cells.

[7] = system: E. coli ATCC 25922; test: SYTOX green uptake assay (membrane permeabilization); assay type: cell-based, Escherichia coli; conditions: 12.5 µM (twofold above the MIC), 1 h, 37 °C, PBS
Experimental: SG is impermeant to live cells and when the cell membrane is damaged, this dye penetrates into the cell and binds to intracellular DNA, due to its high-affinity to nucleic acids, leading to an increase in fluorescence. Exponentially growing bacteria (6 × 10^5 cfu mL^−1) were resuspended in PBS after centrifugation (1000 × g, 10 min, 4 °C) and washing steps. About 792 μL of the bacterial suspension was pre-incubated with 8 μL of 100 μM SG during 30 min at 37 °C in the dark. […] Results correspond to a representative experiment with negative (PBS) and positive (melittin) controls. Three independent experiments were performed.

[8] = system: Streptococcus pyogenes ATCC 19615; assay type: cell-based; conditions: ATCC 19615, 18 h
Description: as §2

[9] = system: Staphylococcus aureus ATCC 25923; assay type: cell-based; conditions: ATCC 25923, 18 h
Description: as §2

[10] = system: Enterococcus faecalis ATCC 29212; assay type: cell-based; conditions: ATCC 29212, 18 h
Description: as §2

[11] = system: E. coli ATCC 25922; assay type: cell-based, Escherichia coli
Experimental: Exponentially growing bacteria in LB were harvested by centrifugation, washed three times in PBS and suspended in the same buffer to a final concentration of 10^7 cfu mL^−1. One hundred microliters of this bacterial suspension was incubated with a dose of peptide corresponding to twofold the MIC. Then, aliquots of 10 µL were withdrawn at different times, diluted in LB, and spread onto LB agar plates. The cfu were counted after overnight incubation at 37 °C.

[12] = system: Candida parapsilosis ATCC 22019; assay type: cell-based; conditions: ATCC 22019, 18 h
Description: as §2

[13] = system: Klebsiella pneumoniae ATCC 13883; assay type: cell-based; conditions: ATCC 13883, 18 h
Description: as §2

[14] = system: P. aeruginosa strain PAO1; test: Scarification skin infection mouse model; assay type: in vivo, female CD-1 mice
Experimental: P. aeruginosa strain PAO1 was grown to an optical density at 600 nm (OD600) of 1 in tryptic soy broth medium. Subsequently cells were washed twice with sterile PBS, and resuspended to a final concentration of 5 × 10^7 CFU in 50 μL. To generate skin infection, female CD-1 mice (6 weeks old) were anesthetized with isoflurane and had their backs shaved. A superficial linear skin abrasion was made with a needle in order to damage the stratum corneum and upper layer of the epidermis. Five minutes after wounding, an aliquot of 50 μL containing 5 × 10^7 CFU of bacteria in PBS was inoculated over each defined area containing the scratch with a pipette tip. One day after the infection, peptides were administered to the infected area. Animals were euthanized and the area of scarified skin was excised 2 and 4 days post-infection, homogenized using a bead beater for 20 min (25 Hz), and serially diluted for CFU quantification. Two independent experiments were performed with four mice per group in each case. Statistical significance was assessed using a two-way ANOVA. Animals were maintained in accordance with the Guide for the Care and Use of Laboratory Animals in an AAALAC-accredited facility. All procedures were approved by the MIT’s Institutional Animal Care and Use Committee (IACUC), protocol number 1016-064-19.

[15] = system: Pseudomonas aeruginosa ATCC 27853; assay type: cell-based; conditions: ATCC 27853, 18 h
Description: as §2

## CC[C@H](C)[C@H](NC(=O)[C@H](CCCNC(=N)N)NC(=O)[C@H](Cc1ccc(O)cc1)NC(=O)CNC(=O)[C@H](Cc1ccc(O)cc1)NC(=O)[C@H](CCCNC(=N)N)NC(=O)[C@H](CC(C)C)NC(=O)[C@H](C)NC(=O)[C@H](CCC(N)=O)NC(=O)[C@H](CCC(=O)O)NC(=O)[C@@H](NC(=O)[C@H](CCC(N)=O)NC(=O)[C@H](CCCNC(=N)N)NC(=O)[C@H](CCSC)NC(=O)[C@H](Cc1ccc(O)cc1)NC(=O)[C@H](CCC(N)=O)NC(=O)[C@@H](N)CCCNC(=N)N)[C@@H](C)CC)C(=O)N[C@@H](CO)C(=O)N[C@@H](CCCNC(=N)N)C(=O)N[C@@H](CCCNC(=N)N)C(N)=O [Guavanin 2] (H-RQYMRQIEQALRYGYRISRR-NH2)
[1]
  Active concentration (MIC): 6.25 µM
[2]
  Active concentration (MIC): 6.25 µM
[3]
  antibiofilm activity: only able to reduce C. albicans biofilms
[4]
  Active concentration (MIC): 50 µM
[5]
  antibiofilm activity: only able to reduce C. albicans biofilms
[6]
  membrane effect seen in SEM-FEG images: membrane damage (deformations/indentations)
[7]
  SYTOX Green influx (membrane permeabilization): only a slow and very small amount of dye influx
[8]
  Active concentration (MIC): 50 µM
[9]
  Active concentration (MIC): 100 µM
[10]
  Active concentration (MIC): >100 µM
[11]; 12.5 µM (twofold above the MIC), 120 min
  colony-forming units remaining (from 10^7): ~ 10^5 colony-forming units
[11]; time–kill, E. coli
  killing speed relative to [I^5, R^8] mastoparan: eightfold slower
[12]
  Active concentration (MIC): ≥50 µM
[13]
  Active concentration (MIC): 80 µM
[14]; 6.25 μg mL−1 (lowest dose) applied to infected area 24 h after infection, after 4 days
  reduction in bacterial counts: 3 log
[14]; doses 6.25, 25 and 100 µg mL−1, 4 days post-infection, two experiments, four mice per group
  effect on CFU counts / bacterial load (two-way ANOVA): significantly reduced CFU counts
[15]
  Active concentration (MIC): 25 µM
